Source: article PMC12311259, “Antifibrotic effects of specific targeting of the 5‐hydroxytryptamine 2B receptor (5‐HT2BR) in murine models and ex vivo models of scleroderma skin” (Arthritis & Rheumatology (Hoboken, N.j.), 2025)
Entries after “also recorded” stand apart in the source; their conditions may differ.

Columns and labels:
Tsk-1 mice = experiment: Tsk-1 mouse model of skin fibrosis; type: in vivo
Method: AM1476 was dissolved in sterile distilled water for the ex vivo and in vivo experiments. A concentration of 30 μM was applied for the ex vivo experiment. For the in vivo experiments, 1, 3, or 10 mg/kg was administered orally once or twice daily.
In the murine Tsk‐1 model of SSc, a dominant mutation in the fibrillin 1 gene leads to an SSc‐like disease, with minor inflammatory infiltrates, autoantibody production, and fibrosis of the skin. This model reflects the later stages of SSc characterized by noninflammatory self‐sustaining fibrosis. Eight to 12 mice per group were analyzed. Treatment was initiated at an age of five weeks, and the outcome was analyzed at an age of 10 weeks.[11]
(§1) Skin samples were fixed in 4% formalin for six hours and embedded in paraffin. Five‐micrometer sections were cut and stained with hematoxylin and eosin (H&E). The dermal thickness was quantified on H&E‐stained sections using images captured with a light microscope (Nikon eclipse 80i) at 100‐fold magnification by manually measuring the distance between the epidermal‐dermal junction and the dermal‐subcutaneous fat junction at four sites per mouse.[15], [16] For lung samples, the whole left lung was fixed in 4% formalin for six hours and embedded in paraffin. Five‐micrometer sections were cut and stained with trichrome and sirius red. Histologic readouts were evaluation of the fibrotic area as the percentage of the total lung area in sirius red–stained sections (two sections per mouse) and quantification of pulmonary changes using the Ashcroft score (four sections per mouse).[17], [18]
(§2) The amount of collagen protein in skin and lung samples was determined by hydroxyproline assay.[19], [20] After digestion in 6 M HCl for three hours at 120°C, the pH of the samples was adjusted to a pH range of 6–7 with 6 M NaOH. Afterward, 0.06 M chloramine T was added to each sample and incubated for 20 minutes at room temperature. Next, 3.15 M perchloric acid and 20% p‐dimethylaminobenzaldehyde were added, and samples were incubated for an additional 20 minutes at 60°C. The absorbance was determined at 557 nm with a Spectra MAX 190 microplate spectrophotometer. Absolute values were determined using a standard curved generated with type I collagen (Sigma‐Aldrich).
Myofibroblasts are characterized by the expression of α‐smooth muscle actin (α‐SMA). Fibroblasts positive for α‐SMA were detected by immunohistochemistry staining with monoclonal anti–α‐SMA antibodies (clone 1A4, Sigma‐Aldrich). The expression was visualized with horseradish peroxidase–labeled secondary antibodies and 3,3‐diaminobenzidine tetra hydrochloride (Sigma‐Aldrich). Monoclonal mouse IgG antibodies (Calbiochem) were used as controls. Images of sections stained for α‐SMA were captured on a light microscope (Nikon eclipse 80i). The myofibroblast number was manually evaluated at four different areas at 200‐fold magnification. Myofibroblasts were defined as α‐SMA positive, single, and spindle‐shaped cells in the dermis.[5], [21]

Serotonin 5-HT6 (hu) = biological target: T1, Serotonin 5-HT6 (hu) (Homo sapiens, UniProt P50406); experiment: Functionality assay, Adenylyl Cyclase, Eurofins Panlabs 318000; type: cell-based
T1 construct: 318000 (adenylyl cyclase)
Description: (§3) Effects were considered significant if AM1476's mean value was three or more SDs above the vehicle control mean in the agonist assay or three or more SDs below the positive control agonist (5‐nM α‐methylserotonin) mean in the antagonist assay. AM1476 was screened for selectivity against approximately 200 targets using a Eurofins Panlabs Spectrum screen panel including enzymatic and receptor binding assays.

[1] = biological target: T2, Serotonin (5-Hydroxytryptamine) 5-HT1A (hu) (Homo sapiens, UniProt P08908); experiment: Receptor binding, Eurofins Panlabs 271110
T2 construct: Eurofins Panlabs 271110
Description: as §3

[2] = biological target: T3, Serotonin (5-Hydroxytryptamine) 5-HT6 (hu) (Homo sapiens, UniProt P50406); experiment: Receptor binding, Eurofins Panlabs 272200
T3 construct: 318000 (adenylyl cyclase)
Description: as §3

[3] = tested on: Bleomycin-induced pulmonary fibrosis; experiment: Bleomycin-induced pulmonary fibrosis in mice; type: in vivo, mouse
Method: Pulmonary fibrosis was induced by a single intratracheal instillation of bleomycin (25 μg in 50 μL of 0.9% NaCl).[12] Treatment was initiated at two weeks after the first injection of bleomycin. AM1476 was administered orally at 1, 3, or 10 mg/kg once daily. Solvent (double‐distilled water) was used as a control, and nintedanib at 30 mg/kg orally every day (qd) was included as a comparator. The outcome was analyzed at two and four weeks after the first injection of bleomycin. Mice injected with 0.9% NaCl, the vehicle of bleomycin, served as nonfibrotic controls. Eight mice per group were analyzed.
as §1, §2

[4] = biological target: T4, Uptake, Norepinephrine (hu) (Homo sapiens, UniProt P23975); experiment: Functionality assay, Uptake, Eurofins Panlabs 302000; type: cell-based
T4 construct: Eurofins Panlabs 302000
Description: as §3

Adrenergic α1B (hu) = biological target: T5, Adrenergic α1B (hu) (Homo sapiens, UniProt P35368); experiment: Functionality assay, IP1, Eurofins Panlabs 302060; type: cell-based
T5 construct: Eurofins Panlabs 302060
Description: as §3

human 5-HT2BR = biological target: T6, human 5-HT2BR (Homo sapiens, UniProt P41595); experiment: Functionality assay, HTRF quantification of IP1 accumulation in CHO-K1 cells; type: cell-based
T6 construct: 355260 (IP1); host or cells: CHO-K1

Adrenergic α1D (hu) = biological target: T7, Adrenergic α1D (hu) (Homo sapiens, UniProt P25100); experiment: Functionality assay, IP1, Eurofins Panlabs 302080; type: cell-based
T7 construct: Eurofins Panlabs 302080

[5] = all three doses, vs vehicle-treated 10-week-old Tsk-1 mice
[6] = all doses (1, 3, 10 mg/kg orally once daily), vs vehicle-treated bleomycin-challenged mice

T6 sequence (P41595 whole entry): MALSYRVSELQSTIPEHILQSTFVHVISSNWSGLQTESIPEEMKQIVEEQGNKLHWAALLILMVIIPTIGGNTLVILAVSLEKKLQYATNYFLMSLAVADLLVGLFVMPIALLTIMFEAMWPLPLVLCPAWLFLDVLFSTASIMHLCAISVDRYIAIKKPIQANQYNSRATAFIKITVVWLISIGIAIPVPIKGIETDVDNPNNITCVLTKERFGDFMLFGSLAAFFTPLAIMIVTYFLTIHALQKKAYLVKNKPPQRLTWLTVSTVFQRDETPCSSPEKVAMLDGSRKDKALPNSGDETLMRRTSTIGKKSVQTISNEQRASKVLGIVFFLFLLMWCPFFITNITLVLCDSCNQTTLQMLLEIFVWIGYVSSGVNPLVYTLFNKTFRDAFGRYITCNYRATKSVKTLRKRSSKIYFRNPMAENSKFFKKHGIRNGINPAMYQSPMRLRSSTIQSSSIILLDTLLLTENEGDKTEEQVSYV
T1 sequence (P50406 whole entry): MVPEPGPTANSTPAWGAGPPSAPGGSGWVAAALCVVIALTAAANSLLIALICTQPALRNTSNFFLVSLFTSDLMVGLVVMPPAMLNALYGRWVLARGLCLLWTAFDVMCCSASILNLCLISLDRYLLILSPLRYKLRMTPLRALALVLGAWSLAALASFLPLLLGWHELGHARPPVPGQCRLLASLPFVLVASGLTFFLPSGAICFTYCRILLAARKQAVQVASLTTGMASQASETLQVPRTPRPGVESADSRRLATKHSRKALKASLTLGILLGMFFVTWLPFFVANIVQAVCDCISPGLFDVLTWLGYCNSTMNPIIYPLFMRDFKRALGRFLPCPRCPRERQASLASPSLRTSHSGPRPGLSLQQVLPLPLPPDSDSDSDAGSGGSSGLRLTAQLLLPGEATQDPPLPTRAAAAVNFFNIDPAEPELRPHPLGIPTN
T3 sequence (P50406 whole entry): as above
T5 sequence (P35368 whole entry): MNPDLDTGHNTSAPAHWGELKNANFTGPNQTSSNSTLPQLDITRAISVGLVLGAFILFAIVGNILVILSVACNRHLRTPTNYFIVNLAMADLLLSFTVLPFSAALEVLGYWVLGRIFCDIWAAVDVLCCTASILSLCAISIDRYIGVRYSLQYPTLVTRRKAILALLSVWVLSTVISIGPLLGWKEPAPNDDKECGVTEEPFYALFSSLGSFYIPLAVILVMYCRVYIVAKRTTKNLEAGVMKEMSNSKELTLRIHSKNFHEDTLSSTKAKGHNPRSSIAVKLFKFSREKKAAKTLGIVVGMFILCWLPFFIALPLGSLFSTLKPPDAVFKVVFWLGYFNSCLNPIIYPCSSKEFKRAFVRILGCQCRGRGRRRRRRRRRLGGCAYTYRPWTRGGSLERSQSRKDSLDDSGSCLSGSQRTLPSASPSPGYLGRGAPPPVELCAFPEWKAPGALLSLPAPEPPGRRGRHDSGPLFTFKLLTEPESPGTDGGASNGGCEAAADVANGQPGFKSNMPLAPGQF
T7 sequence (P25100 whole entry): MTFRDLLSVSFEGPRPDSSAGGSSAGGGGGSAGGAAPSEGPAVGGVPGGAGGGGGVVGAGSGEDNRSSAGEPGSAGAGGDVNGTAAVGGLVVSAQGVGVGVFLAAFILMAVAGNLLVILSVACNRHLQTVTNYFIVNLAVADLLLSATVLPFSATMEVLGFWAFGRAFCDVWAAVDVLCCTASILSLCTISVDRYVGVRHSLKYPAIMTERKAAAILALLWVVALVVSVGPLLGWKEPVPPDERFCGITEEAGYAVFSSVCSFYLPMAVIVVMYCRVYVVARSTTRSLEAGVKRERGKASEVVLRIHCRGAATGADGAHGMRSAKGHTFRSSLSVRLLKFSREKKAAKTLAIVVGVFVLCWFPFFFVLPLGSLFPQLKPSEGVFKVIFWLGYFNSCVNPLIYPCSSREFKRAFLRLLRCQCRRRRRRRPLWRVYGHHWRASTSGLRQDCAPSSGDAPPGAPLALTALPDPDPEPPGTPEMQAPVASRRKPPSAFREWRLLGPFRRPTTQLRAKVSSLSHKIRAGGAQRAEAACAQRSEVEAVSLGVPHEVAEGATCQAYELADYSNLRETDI
T4 sequence (P23975 whole entry): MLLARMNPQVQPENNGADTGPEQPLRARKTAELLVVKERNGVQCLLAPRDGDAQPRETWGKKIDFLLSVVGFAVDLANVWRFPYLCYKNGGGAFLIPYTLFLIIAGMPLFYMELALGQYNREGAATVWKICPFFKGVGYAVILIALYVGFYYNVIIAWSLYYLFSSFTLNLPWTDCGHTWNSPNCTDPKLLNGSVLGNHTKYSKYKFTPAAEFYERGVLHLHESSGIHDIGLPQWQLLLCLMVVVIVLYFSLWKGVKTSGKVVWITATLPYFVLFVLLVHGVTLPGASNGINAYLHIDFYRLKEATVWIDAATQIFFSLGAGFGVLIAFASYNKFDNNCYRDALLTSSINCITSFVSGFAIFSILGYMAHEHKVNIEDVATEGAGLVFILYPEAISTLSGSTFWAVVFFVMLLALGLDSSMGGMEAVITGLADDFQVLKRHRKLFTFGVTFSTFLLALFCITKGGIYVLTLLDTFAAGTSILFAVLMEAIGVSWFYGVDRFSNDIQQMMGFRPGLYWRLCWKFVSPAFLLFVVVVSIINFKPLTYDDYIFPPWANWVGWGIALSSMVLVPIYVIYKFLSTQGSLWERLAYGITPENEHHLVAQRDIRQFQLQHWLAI
T2 sequence (P08908 whole entry): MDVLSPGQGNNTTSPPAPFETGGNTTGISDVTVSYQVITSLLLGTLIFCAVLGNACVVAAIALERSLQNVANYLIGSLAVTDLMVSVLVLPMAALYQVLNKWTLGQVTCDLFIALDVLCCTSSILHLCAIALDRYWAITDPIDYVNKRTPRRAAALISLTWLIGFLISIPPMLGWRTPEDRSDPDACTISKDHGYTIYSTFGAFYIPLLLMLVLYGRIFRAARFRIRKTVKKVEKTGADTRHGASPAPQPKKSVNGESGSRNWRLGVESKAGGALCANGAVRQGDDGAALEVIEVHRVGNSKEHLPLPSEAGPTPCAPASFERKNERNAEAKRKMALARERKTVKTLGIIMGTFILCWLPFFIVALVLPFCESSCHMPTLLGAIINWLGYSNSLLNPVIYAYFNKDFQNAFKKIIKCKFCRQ

**Q.** For `C[C@@H]1CN(C(=N)N)N=C1c1ccc(F)cc1O` [AM1476], which “hydroxyproline content vs five-week-old Tsk-1 mice (pretreatment level)” value (Tsk-1 mice; 10 mg/kg qd or 10 mg/kg bid) is on record?
**A.** The value was “comparable”.

**Q.** What about the “hypodermal thickness vs five-week-old Tsk-1 mice (pretreatment level)” value (Tsk-1 mice; 10 mg/kg qd or 10 mg/kg bid) of the same compound?
**A.** Its value is “comparable”.

**Q.** What about the hydroxyproline content (Tsk-1 mice; [5]) of the same compound?
**A.** The hydroxyproline content was “reduced”.

**Q.** And the hypodermal thickening (Tsk-1 mice; [5])?
**A.** The hypodermal thickening was “reduced”.

**Q.** And the myofibroblast counts (Tsk-1 mice; [5])?
**A.** The myofibroblast counts was “reduced”.

**Q.** What about the IC50 (Serotonin 5-HT6 (hu)) of the same compound?
**A.** Its IC50 is 4.55 µM.

**Q.** What about the “agonistic activity, Serotonin 5-HT6” value (Serotonin 5-HT6 (hu); at 30 µM) of the same compound?
**A.** The value was “No significant agonistic activity at 30 µM”.

**Q.** And the “% Inhibition at 10 µM, 5-HT1A (hu)” value [1]?
**A.** The value was 16%.

**Q.** What about the “% Inhibition at 1 µM, 5-HT6 (hu)” value ([2]; 1 µM (value in brackets)) of the same compound?
**A.** Its value is 51%.

**Q.** And the “% Inhibition at 10 µM, 5-HT6 (hu)” value ([2]; 10 µM)?
**A.** The value was 90%.

**Q.** What about the “antifibrotic effects relative to comparator, across the different readouts” value ([3]; AM1476 1, 3, 10 mg/kg orally once daily) of the same compound?
**A.** Its value is “comparable to those of nintedanib”.

**Q.** What about the Ashcroft scores [3, 6] of the same compound?
**A.** Its Ashcroft scores is “decreases”.

**Q.** What about the collagen-covered area [3, 6] of the same compound?
**A.** Its collagen-covered area is “decreases”.

**Q.** What about the hydroxyproline content [3, 6] of the same compound?
**A.** The hydroxyproline content was “decreases”.

**Q.** And the IC50 [4]?
**A.** Its IC50 is 3.78 µM.

**Q.** What about the IC50 (Adrenergic α1B (hu)) of the same compound?
**A.** The IC50 was 9.53 µM.

**Q.** And the “agonistic activity, Adrenergic α1B” value (Adrenergic α1B (hu); at 30 µM)?
**A.** The value was “No significant agonistic activity at 30 µM”.

**Q.** What about the “agonistic activity at 5-HT2BR” value (human 5-HT2BR) of the same compound?
**A.** The value was “devoid of agonistic activity; also recorded: no agonism”.

**Q.** What about the IC50 (human 5-HT2BR; inhibition of 5-HT (5 nM) induced IP1 response, CHO-K1, read-out: IC50, antagonistic activity, human 5-HT2B) of the same compound?
**A.** Its IC50 is 5.8 nM.

**Q.** What about the IC50 (Adrenergic α1D (hu)) of the same compound?
**A.** Its IC50 is 7.76 µM.

**Q.** What about the “agonistic activity, Adrenergic α1D” value (Adrenergic α1D (hu); at 30 µM) of the same compound?
**A.** The value was “No significant agonistic activity at 30 µM”.
